Results on 32 compounds are retold here after patent EP4759805A1, “NLRP3 INFLAMMASOME INHIBITOR AND USE THEREOF” (NEUROCRINE BIOSCIENCES, INC., priority 2023, dated 2025).

pIC50: −log10 of the molar value.

The target of this assay is T1, NLRP3 inflammasome (Homo sapiens, UniProt Q96P20).
T1 construct: endogenous in cells; host or cells: THP-1 cells (PMA-differentiated, LPS-primed, nigericin-stimulated)
T1 sequence (Q96P20 whole entry): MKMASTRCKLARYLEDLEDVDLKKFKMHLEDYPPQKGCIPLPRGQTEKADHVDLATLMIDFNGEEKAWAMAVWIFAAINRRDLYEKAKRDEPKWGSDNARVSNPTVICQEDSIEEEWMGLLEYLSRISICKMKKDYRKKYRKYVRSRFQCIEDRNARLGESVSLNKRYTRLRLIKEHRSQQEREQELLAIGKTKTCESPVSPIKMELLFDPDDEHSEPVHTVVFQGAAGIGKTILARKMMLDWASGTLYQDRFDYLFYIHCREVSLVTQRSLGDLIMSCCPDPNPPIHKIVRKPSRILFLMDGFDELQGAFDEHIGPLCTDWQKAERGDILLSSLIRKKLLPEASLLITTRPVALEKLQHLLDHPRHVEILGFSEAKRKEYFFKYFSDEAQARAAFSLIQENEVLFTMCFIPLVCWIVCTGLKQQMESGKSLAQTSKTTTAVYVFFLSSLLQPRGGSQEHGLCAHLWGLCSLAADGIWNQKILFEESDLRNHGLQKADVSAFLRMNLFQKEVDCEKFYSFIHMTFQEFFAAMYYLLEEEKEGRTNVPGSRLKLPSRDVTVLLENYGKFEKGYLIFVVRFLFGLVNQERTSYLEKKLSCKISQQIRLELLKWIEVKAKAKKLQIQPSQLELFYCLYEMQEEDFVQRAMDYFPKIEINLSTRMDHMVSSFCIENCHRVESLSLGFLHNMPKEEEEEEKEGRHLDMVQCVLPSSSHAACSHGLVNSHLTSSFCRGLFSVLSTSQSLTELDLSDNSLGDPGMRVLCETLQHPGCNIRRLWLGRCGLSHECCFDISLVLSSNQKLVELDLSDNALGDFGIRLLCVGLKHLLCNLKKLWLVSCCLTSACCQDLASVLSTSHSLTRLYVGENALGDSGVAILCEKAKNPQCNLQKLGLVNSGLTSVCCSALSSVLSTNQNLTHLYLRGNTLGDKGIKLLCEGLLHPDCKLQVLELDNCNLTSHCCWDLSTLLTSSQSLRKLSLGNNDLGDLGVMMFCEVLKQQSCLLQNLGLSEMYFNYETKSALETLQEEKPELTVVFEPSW
Description: Cell assay of inhibitory activity against NLRP3 inflammasome in THP-1 cells (LPS/nigericin stimulation, caspase-1 glo readout). Conditions: PMA-differentiated THP-1 cells; LPS 500 ng/ml 3 h, compound 1 h, nigericin 10 µg/ml 30 min; active caspase-1 in supernatant. It is filed as cell-based. As to the method: Experimental Example 1: Cell assay of inhibitory activity of the compounds of the present disclosure against NLRP3 inflammasome
Test compounds: the compounds of the present disclosure prepared in accordance with the methods described in the Examples
THP-1 was an immortalized human macrophage cell line.
Test instrument: Microplate reader (manufactured by PE)
• 1. THP-1 cells were cultured in 1640 complete medium (500 ml 1640+56 ml FBS+560 µl 1000× P/S+2 µl mercaptoethanol), and used within 3 to 20 passages. • 2. Coating of culture plates: 100 µl of polylysine solution was added into a 96-well cell culture plate and incubated at 37°C for 30min. The solution was discarded, and the plate was washed twice with PBS for later use. • 3. Induction of differentiation of THP-1: THP-1 cells were resuspended in an appropriate amount of complete medium containing 10 ng/ml PMA to achieve a cell density of 5×10^5 cells /ml in the suspension. The cell suspension was added into a 96-well plate with 100 µl of cell suspension per well, and the 96-well plate was cultured overnight for 16 hours in a 37°C CO2 cell incubator. • 4. Stimulation of THP-1: • a. Serum-free THP-1 culture medium containing LPS was added to achieve a final concentration of 500 ng/ml, and the resultant was cultured in a 37°C CO2 cell incubator for 3h; • b. The compounds to be tested were prepared into stock solutions at gradient concentrations with DMSO. The resulting solutions were added to the cells, evenly mixed, and finally diluted at 1:1000. The 96-well plate was cultured in a 37°C CO2 cell incubator for 1h. • c. Nigericin was added to each well to achieve a final concentration of 10 µg/ml, and the resultant was cultured in a 37°C CO2 cell incubator for 30 min. • d. The resulting culture medium in each well was transferred to a new culture plate, which was then centrifuged at 3000 rpm for 5min. Afterwards, the supernatant was transferred to a new 96-well plate. • e. The collected supernatant samples of the cell culture medium were determined by using a commercial caspase-1 glo kit, and the content of human active caspase-1 was determined according to the manufacturer's instructions.
The pIC50 is the IC50 on a negative log10 scale, so that one unit is a factor of ten. The compound `C#Cc1ccc(-c2nnc(NC(=O)CNC)cc2C)c(O)c1` [Compound 1, N-(6-(4-ethynyl-2-hydroxyphenyl)-5-methylpyridazin-3-yl)-2-(methylamino)acetamide] showed a pIC50 of 7.78.
Turning to `C#Cc1ccc(-c2nnc(NC(=O)CNCC)cc2C)c(O)c1` [Compound 2, N-(6-(4-ethynyl-2-hydroxyphenyl)-5-methylpyridazin-3-yl)-2-(ethylamino)acetamide], the pIC50 is 7.74.
`C#Cc1ccc(-c2nnc(NC(=O)CNC(C)C)cc2C)c(O)c1` [Compound 3, N-(6-(4-ethynyl-2-hydroxyphenyl)-5-methylpyridazin-3-yl)-2-(isopropylamino)acetamide] gave a pIC50 of 7.49.
With `C#Cc1ccc(-c2nnc(NC(=O)CNC)cc2C2CC2)c(O)c1` [Compound 7, N-(5-cyclopropyl-6-(4-ethynyl-2-hydroxyphenyl)pyridazin-3-yl)-2-(methylamino)acetamide], the pIC50 was 8.89.
With `C#Cc1ccc(-c2nnc(NC(=O)CNCC)cc2C2CC2)c(O)c1` [Compound 8, N-(5-cyclopropyl-6-(4-ethynyl-2-hydroxyphenyl)pyridazin-3-yl)-2-(ethylamino)acetamide], the pIC50 was 8.85.
The compound `C#Cc1ccc(-c2nnc(NC(=O)CNC(C)C)cc2C2CC2)c(O)c1` [Compound 9, N-(5-cyclopropyl-6-(4-ethynyl-2-hydroxyphenyl)pyridazin-3-yl)-2-(isopropylamino)acetamide] gave a pIC50 of 8.01.
`C#Cc1ccc(-c2nnc(NC(=O)CNC3CC3)cc2C2CC2)c(O)c1` [Compound 10, N-(5-cyclopropyl-6-(4-ethynyl-2-hydroxyphenyl)pyridazin-3-yl)-2-(cyclopropylamino)acet amide] showed a pIC50 of 7.72.
As for `C#Cc1ccc(-c2nnc(NC(=O)CN)cc2C2CC2)c(O)c1` [Compound 13, 2-amino-N-(5-cyclopropyl-6-(4-ethynyl-2-hydroxyphenyl)pyridazin-3-yl)acetamide], the figure is 7.63; as for `C#Cc1ccc(-c2nnc(NC(=O)CNC)cc2C(C)C)c(O)c1` [Compound 16, N-(6-(4-ethynyl-2-hydroxyphenyl)-5-isopropylpyridazin-3-yl)-2-(methylamino)acetamide], 8.07.
As for `CNCC(=O)Nc1cc(C)c(-c2ccc(C(F)(F)F)cc2O)nn1` [Compound 17, N-(6-(2-hydroxy-4-(trifluoromethyl)phenyl)-5-methylpyridazin-3-yl)-2-(methylamino)acet amide], the figure is 7.75; as for `CNCC(=O)Nc1cc(C(C)C)c(-c2ccc(C(F)(F)F)cc2O)nn1` [Compound 19, N-(6-(2-hydroxy-4-(trifluoromethyl)phenyl)-5-isopropylpyridazin-3-yl)-2-(methylamino)a cetamide], 8.47.
Then `CNCC(=O)Nc1cc(C2CC2)c(-c2ccc(C(F)(F)F)cc2O)nn1` [Compound 20, N-(5-cyclopropyl-6-(2-hydroxy-4-(trifluoromethyl)phenyl)pyridazin-3-yl)-2-(methylamino)acetamide], with 9.52; and `C#Cc1ccc(-c2nnc(NC(=O)CNC3CCC3)cc2C)c(O)c1` [Compound 31, N-(6-(4-ethynyl-2-hydroxyphenyl)-5-methylpyridazin-3-yl)-2-(cyclobutylamino)acetamide], with 7.88.
Turning to `C#Cc1ccc(-c2nnc(NC(=O)CNC3CC(O)C3)cc2C2CC2)c(O)c1` (centres unmarked) [Compound 33, N-(5-cyclopropyl-6-(4-ethynyl-2-hydroxyphenyl)pyridazin-3-yl)-2-((3-hydroxycyclobutyl)amino)acetamide], the pIC50 is 7.84.
As for `C#Cc1ccc(-c2nnc(NC(=O)CNCC3CC3)cc2C)c(O)c1` [Compound 34, N-(6-(4-ethynyl-2-hydroxyphenyl)-5-methylpyridazin-3-yl)-2-((cyclopropylmethyl)amino) acetamide], the figure is 7.73; as for `C#Cc1ccc(-c2nnc(NC(=O)[C@@H](C)NC)cc2C2CC2)c(O)c1` [Compound 36, (R)-N-(5-cyclopropyl-6-(4-ethynyl-2-hydroxyphenyl)pyridazin-3-yl)-2-(methylamino)prop anamide], 8.54.
As to `C#Cc1ccc(-c2nnc(NC(=O)[C@H](C)NC)cc2C2CC2)c(O)c1` [Compound 37, (S)-N-(5-cyclopropyl-6-(4-ethynyl-2-hydroxyphenyl)pyridazin-3-yl)-2-(methylamino)prop anamide], the pIC50 is 7.53.
As for `C#Cc1ccc(-c2nnc(NC(=O)[C@H]3CCCN3)cc2C2CC2)c(O)c1` [Compound 43, (R)-N-(5-cyclopropyl-6-(4-ethynyl-2-hydroxyphenyl)pyridazin-3-yl)pyrrolidine-2-carboxamide], the figure is 7.67; as for `C#Cc1ccc(-c2nnc(NC(=O)[C@@H](C)N)cc2C2CC2)c(O)c1` [Compound 44, (R)-2-amino-N-(5-cyclopropyl-6-(4-ethynyl-2-hydroxyphenyl)pyridazin-3-yl)propanamide], 8.19.
The compound `C[C@@H](N)C(=O)Nc1cc(C2CC2)c(-c2ccc(C(F)(F)F)cc2O)nn1` [Compound 50, (R)-2-amino-N-(5-cyclopropyl-6-(2-hydroxy-4-(trifluoromethyl)phenyl)pyridazin-3-yl)pro panamide] had a pIC50 of 8.17. The pIC50 values of the last two compounds are within 0.2 log units of each other.
As for `C#Cc1ccc(-c2nnc(NC(=O)[C@H](N)COC)cc2C2CC2)c(O)c1` [Compound 51, (R)-2-amino-N-(5-cyclopropyl-6-(4-ethynyl-2-hydroxyphenyl)pyridazin-3-yl)-3-methoxyp ropanamide], the figure is 7.84.
Then `C#Cc1ccc(-c2nnc(NC(=O)[C@H](N)Cc3ccccc3)cc2C2CC2)c(O)c1` [Compound 52, (R)-2-amino-N-(5-cyclopropyl-6-(4-ethynyl-2-hydroxyphenyl)pyridazin-3-yl)-3-phenylpro panamide], with 7.89; and `C#Cc1ccc(-c2nnc(NC(=O)[C@H](N)C3CC3)cc2C2CC2)c(O)c1` [Compound 53, (R)-2-amino-2-cyclopropyl-N-(5-cyclopropyl-6-(4-ethynyl-2-hydroxyphenyl)pyridazin-3-yl)acetamide], with 8.23; and `C#Cc1ccc(-c2nnc(NC(=O)[C@H](N)CO)cc2C2CC2)c(O)c1` [Compound 55, (R)-2-amino-N-(5-cyclopropyl-6-(4-ethynyl-2-hydroxyphenyl)pyridazin-3-yl)-3-hydroxypr opanamide], with 7.63.
Compound `C#Cc1ccc(-c2nnc(NC(=O)[C@H](N)C(C)C)cc2C2CC2)c(O)c1` [Compound 56, (R)-2-amino-N-(5-cyclopropyl-6-(4-ethynyl-2-hydroxyphenyl)pyridazin-3-yl)-3-methylbut anamide] showed a pIC50 of 8.15. This pIC50 lies 0.52 log units higher than the previous one.
As for `C#Cc1ccc(-c2nnc(NC(=O)[C@H](N)[C@H](C)O)cc2C2CC2)c(O)c1` [Compound 57, (2R, 3S)-2-amino-N-(5-cyclopropyl-6-(4-ethynyl-2-hydroxyphenyl)pyridazin-3-yl)-3-hydroxyb utanamide], the figure is 7.76; as for `C#Cc1ccc(-c2nnc(NC(=O)[C@H](N)[C@@H](C)O)cc2C2CC2)c(O)c1` [Compound 59, (2R,3R)-2-amino-N-(5-cyclopropyl-6-(4-ethynyl-2-hydroxyphenyl)pyridazin-3-yl)-3-hydro xybutanamide], 7.49; as for `CNCC(=O)Nc1nnc(-c2ccc(C(F)(F)F)cc2O)c(C2CC2)n1` [Compound 60, N-(5-cyclopropyl-6-(2-hydroxy-4-(trifluoromethyl)phenyl)-1,2,4-triazin-3-yl)-2-(methylamino)acetamide], 7.49.
`CNCC(=O)Nc1cc(C2CCC2)c(-c2ccc(C(F)(F)F)cc2O)nn1` [Compound 61, N-(5-cyclobutyl-6-(2-hydroxy-4-(trifluoromethyl)phenyl)pyridazin-3-yl)-2-(methylamino) acetamide] had a pIC50 of 8.21.
With `C#Cc1ccc(-c2nnc(NC(=O)CNC)cc2C2CCC2)c(O)c1` [Compound 62, N-(5-cyclobutyl-6-(4-ethynyl-2-hydroxyphenyl)pyridazin-3-yl)-2-(methylamino)acetamide], the pIC50 is 7.68.
Then `C[C@@H](N)C(=O)Nc1cc(C2CCC2)c(-c2ccc(C(F)(F)F)cc2O)nn1` [Compound 63, (R)-2-amino-N-(5-cyclobutyl-6-(2-hydroxy-4-(trifluoromethyl)phenyl)pyridazin-3-yl)prop anamide], with 8.14; and `CC(C)c1cc(NC(=O)[C@@H](C)N)nnc1-c1ccc(C(F)(F)F)cc1O` [Compound 64, (R)-2-amino-N-(6-(2-hydroxy-4-(trifluoromethyl)phenyl)-5-isopropylpyridazin-3-yl)propa namide], with 7.85.
